Source: US20230203017A1, “Protein Kinase C Beta Inhibitors and Uses Thereof” (priority 2021, published 2023)
Entries after “also recorded” stand apart in the source; their conditions may differ. Structures can show the parent of a compound that is named as a salt.

Columns and labels:
[1] = tested on: PKCβ activation of SREBP-1c; assay: SREBP-1c transactivation, Gal4-luciferase reporter with constitutively active PKCβ in HepG2 cells; assay type: cell-based, human; details: LY333,531 5 μM, PD98059 20 μM, GSK690693 1 μM
Protocol: (Gal4)5-luciferase reporter plasmid (0.6 μg) was co-transfected with a plasmid encoding either Gal4-DNA binding region (Gal4-DBD) or activation domain of SREBP-1 c linked to Gal4-DNA binding domain (Gal4-DBD-SREBP-1AD) (0.3 μg) (23) and pCMV-8-galactosidase (0.1 μg), along with constitutively active PKCβ cDNA (0.1 μg), in human hepatoma HepG2 cells in the absence or presence of LY333,531 (5 μM), PD98059 (20 μM) or GSK690693 (1 μM). Fold induction represens luciferase activity on PKCβ transfection relative to basal expression level in the absence of PKCβ expression vector (taken as 1). Luciferase activity was normalized to β-galactosidase activity.
To determine whether PKCβ deficiency affected the activation of hepatic SREBP-1c, a plasmid was used in which activation domain of SREBP-1c is fused to the Gal4-DBD and evaluated the activation of a Gal4-responsive reporter plasmid by overexpressed PKCβ in the absence or presence of indicated inhibitor.

[2] = tested on: C57BL6 mouse model fed HFD or HFHC diet; assay: Efficacy of PKCβ inhibitors on diet-induced obesity and hepatic steatosis in C57BL6 mice; assay type: in vivo; details: for weight gain, intraperitoneal administration / weight gain, oral administration: mice on high fat diet; for weight gain, intraperitoneal administration: i.p. (FIG. 12C); for weight gain, oral administration: oral gavage (FIG. 12D); for liver TG levels: diet-fed mice (FIGS. 12H, 12I)
Protocol: FIG. 12E compares food intake in mice fed HFD for and the indicated PKCb inhibitor was administered by i.p. FIG. 12F compares food intake in mice fed HFD and the indicated PKCb inhibitor was administered orally by gavage.
To test and compare therapeutic efficacy of these inhibitors, the following experiment was set up in a C57BL6 mouse model (20 animals per study). C57BL6 mice (7 week old male mice) were fed either HFD or HFHC diet and were either untreated or treated on the same day with an indicated PKCb inhibitor. The PKCb inhibitor was administered to these mice either by i.p. or oral gavage.
The inhibitors were administered by i.p. (FIG. 12C) or gavage (FIG. 12D).

Recombinant PKCβ = Recombinant PKCβ (Homo sapiens, UniProt P05771); assay: PKCb assay: phosphorylation of Histone H3 (Ser10) by recombinant PKCβ, immunoblot, no lipid activator; assay type: biochemical; details: basal PKCb, lipid activator not included; P-Ser10-Histone H3 by immunoblotting, 30° C., 6 minutes
Chain of Recombinant PKCβ (P05771 whole entry, species assumed): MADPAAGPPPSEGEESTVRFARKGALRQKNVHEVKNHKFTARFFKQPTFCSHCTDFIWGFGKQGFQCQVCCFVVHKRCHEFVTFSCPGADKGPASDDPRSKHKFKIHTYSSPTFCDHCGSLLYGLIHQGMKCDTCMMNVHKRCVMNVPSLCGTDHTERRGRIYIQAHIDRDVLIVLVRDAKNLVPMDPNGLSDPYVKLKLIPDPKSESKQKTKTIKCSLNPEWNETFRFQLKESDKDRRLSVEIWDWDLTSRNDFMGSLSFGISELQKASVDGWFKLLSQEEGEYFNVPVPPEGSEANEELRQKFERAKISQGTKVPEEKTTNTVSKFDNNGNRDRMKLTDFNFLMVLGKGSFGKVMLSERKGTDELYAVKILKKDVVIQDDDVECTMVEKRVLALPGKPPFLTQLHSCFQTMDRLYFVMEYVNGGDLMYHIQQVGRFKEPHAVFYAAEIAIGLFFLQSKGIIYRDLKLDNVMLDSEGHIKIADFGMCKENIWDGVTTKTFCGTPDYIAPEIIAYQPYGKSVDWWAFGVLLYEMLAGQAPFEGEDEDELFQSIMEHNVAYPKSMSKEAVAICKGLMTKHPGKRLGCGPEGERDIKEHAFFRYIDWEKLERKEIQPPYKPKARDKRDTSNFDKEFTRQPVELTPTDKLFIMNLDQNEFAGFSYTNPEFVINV
Protocol: Recombinant PKCβ (11ng) was mixed with purified Histone H3 (20 ng) and incubated at 30° C. for 6 minutes and phosphorylated Histone H3 (P^ser10-Histone H3) assessed by immunoblotting using specific antibodies (FIG. 11). Lipid activator was not included our assay because we were interested in finding chemicals inhibiting PKCb in its basal state.

| IC50 (Recombinant PKCβ) | Compound | activation of SREBP-1c plasmid by overexpressed PKCβ in presence of inhibitor [1] | weight gain, intraperitoneal administration [2] | weight gain, oral administration [2] | liver TG levels [2] | diet-induced obesity ([2]; mice (FIG. 12G)) |
| --- | --- | --- | --- | --- | --- | --- |
|  | CN(C)C[C@@H]1CCn2cc(c3ccccc32)C2=C(C(=O)NC2=O)c2cn(c3ccccc23)CCO1 [LY333531, Ruboxistaurin hydrochloride, reference compound] | this activation was blocked | reduction in weight gain | caused an increase in weight gain |  |  |
| 50 nM | N#CCCCCCn1cc(C2=C(c3cn(CCCCCC#N)c4ccccc34)C(=O)NC2=O)c2ccccc21 [INST3399] |  | reduction in weight gain | caused an increase in weight gain; also recorded: greater weight gain relative to LY333531 | reduces liver TG levels |  |
| 10 nM | Cn1cc(-c2c(-c3c[nH]c4ccccc34)[nH][nH]c2=O)c2ccccc21 [INST5660] |  |  |  | reducing diet-induced liver triglyceride level | reducing diet-induced obesity |
